The results in this text go back to patent US12162895B2, “DNA polymerase theta inhibitor for treatment of cancer” (Breakpoint Therapeutics GmbH, priority 2023, dated 2024).

This test addresses T1, Polθ (Homo sapiens, UniProt O75417).
T1 construct: a truncated Pole protein (Pole-Hel containing the helicase domain (67-894))
In words: Polθ ATPase assay (Biological Assay 1, ADP-Glo luminescence). It counts as biochemical. The conditions noted are these: truncated Polθ protein containing the helicase domain (67-894), ssDNA oligo, ATP, in vitro. As to the method:
The Pole ATPase assay was used to evaluate inhibitors of Pole ATPase activity, in vitro. Experiments were performed using a truncated Pole protein (Pole-Hel containing the helicase domain (67-894), ATP and a DNA single strand Oligo (5′-CTGTCCTGCATGATG-3′) in the Pole assay buffer (20 mM Tris-HCl (pH 8.8), MgCl2 5 mM, tween20 0.01%, NP40 0.01%, BSA 0.01%, DTT 1 mM). 2 μL of assay buffer containing Pole-Hel protein (0.5 nM) and DNA substrate (500 nM) was transferred into assay ready plates, containing 0.04 μL of compounds diluted in DMSO. After a 30 minutes incubation at 23° C. in the dark, the reaction was triggered by adding 2 μL of ATP (60 μM), in assay buffer. After 60 minutes at 23° C., 4 μl of ADP-Glo™ Reagent (Glo 1) was added followed by 40 minutes of incubation, then 8 μl of ADP-Glo™ kinase Detection Reagent (Glo 2) followed by 60 minutes of incubation at 23° C. Luminescence was then measured using Tecan F200 infinite plate reader. Raw data were analysed using GeneData to generate IC50 values.
The Pole ATPase assay described in Biological Assay 1 above was used to evaluate inhibitors of Pole ATPase activity for the compounds described in the Experimental Part B above, in vitro.
In general terms: ADP-Glo first removes unused ATP, then detects ADP through luciferase.

T1 sequence (O75417 67-894): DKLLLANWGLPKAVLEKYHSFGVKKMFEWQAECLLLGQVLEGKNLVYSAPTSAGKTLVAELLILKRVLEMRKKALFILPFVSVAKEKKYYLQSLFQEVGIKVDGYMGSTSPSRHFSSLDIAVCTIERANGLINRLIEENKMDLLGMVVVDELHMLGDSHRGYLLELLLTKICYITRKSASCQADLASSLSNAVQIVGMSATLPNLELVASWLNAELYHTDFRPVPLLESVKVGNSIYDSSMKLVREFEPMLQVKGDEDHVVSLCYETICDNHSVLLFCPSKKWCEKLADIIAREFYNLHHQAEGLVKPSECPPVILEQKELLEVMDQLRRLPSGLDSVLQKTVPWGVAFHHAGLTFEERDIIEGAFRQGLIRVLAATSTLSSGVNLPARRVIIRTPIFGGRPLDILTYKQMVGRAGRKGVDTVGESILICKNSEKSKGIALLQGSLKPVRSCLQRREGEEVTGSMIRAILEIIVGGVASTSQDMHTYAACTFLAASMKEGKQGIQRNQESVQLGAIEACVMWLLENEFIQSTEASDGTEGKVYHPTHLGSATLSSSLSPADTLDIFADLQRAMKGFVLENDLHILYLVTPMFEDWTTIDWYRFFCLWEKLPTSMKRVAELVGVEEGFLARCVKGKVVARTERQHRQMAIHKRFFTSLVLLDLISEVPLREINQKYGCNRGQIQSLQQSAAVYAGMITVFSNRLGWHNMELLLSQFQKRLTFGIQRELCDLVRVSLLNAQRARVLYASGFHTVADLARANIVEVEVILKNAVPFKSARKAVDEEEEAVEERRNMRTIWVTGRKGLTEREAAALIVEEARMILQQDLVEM

Turning to “5′-methoxy-2′,6-dimethyl-N-[5-(morpholin-4-yl)-[1,3]thiazolo[5,4-d]pyrimidin-2-yl]-[4,4′-bipyridine]-3-carboxamide [Example 92]”, the IC50 (usually the concentration needed to halve the response being measured) was under 100 nM.
